Data on twelve compounds can be found in patent publication US12539292B2, “BRM targeting compounds and associated methods of use” (Arvinas Operations, Inc., priority 2018, dated 2026).

The term DC50 denotes the concentration at which degradation of the target reaches its halfway point. As a reminder, the Dmax is the greatest extent of degradation seen.

This test concerns the target T1, BRM (Homo sapiens, UniProt P51531).
T1 construct: In-Cell Western Screen of BRM Degradation in SW1573 Cells; endogenous in cells; host or cells: SW1573
The test can be described thus: In-cell Western screen of BRM degradation in SW1573 cells (Dmax and DC50). It is filed as cell-based. Conditions: BRM degradation, SW1573 cells; for DC50: read-out: DC50; for Dmax: read-out: Dmax (%) (% degraded). Put shortly: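 Near-infrared imaging on a LI-COR Odyssey (800 and 680 nm channels) quantifies BRM remaining in fixed SW1573 cells. Cells are dosed for 18-20 h at 0.1% final DMSO, and degradation is expressed as Dmax and DC50.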

Setting [1] is: tested at the top concentration of between 0.3 and 10 μM.

T1 sequence (P51531 whole entry): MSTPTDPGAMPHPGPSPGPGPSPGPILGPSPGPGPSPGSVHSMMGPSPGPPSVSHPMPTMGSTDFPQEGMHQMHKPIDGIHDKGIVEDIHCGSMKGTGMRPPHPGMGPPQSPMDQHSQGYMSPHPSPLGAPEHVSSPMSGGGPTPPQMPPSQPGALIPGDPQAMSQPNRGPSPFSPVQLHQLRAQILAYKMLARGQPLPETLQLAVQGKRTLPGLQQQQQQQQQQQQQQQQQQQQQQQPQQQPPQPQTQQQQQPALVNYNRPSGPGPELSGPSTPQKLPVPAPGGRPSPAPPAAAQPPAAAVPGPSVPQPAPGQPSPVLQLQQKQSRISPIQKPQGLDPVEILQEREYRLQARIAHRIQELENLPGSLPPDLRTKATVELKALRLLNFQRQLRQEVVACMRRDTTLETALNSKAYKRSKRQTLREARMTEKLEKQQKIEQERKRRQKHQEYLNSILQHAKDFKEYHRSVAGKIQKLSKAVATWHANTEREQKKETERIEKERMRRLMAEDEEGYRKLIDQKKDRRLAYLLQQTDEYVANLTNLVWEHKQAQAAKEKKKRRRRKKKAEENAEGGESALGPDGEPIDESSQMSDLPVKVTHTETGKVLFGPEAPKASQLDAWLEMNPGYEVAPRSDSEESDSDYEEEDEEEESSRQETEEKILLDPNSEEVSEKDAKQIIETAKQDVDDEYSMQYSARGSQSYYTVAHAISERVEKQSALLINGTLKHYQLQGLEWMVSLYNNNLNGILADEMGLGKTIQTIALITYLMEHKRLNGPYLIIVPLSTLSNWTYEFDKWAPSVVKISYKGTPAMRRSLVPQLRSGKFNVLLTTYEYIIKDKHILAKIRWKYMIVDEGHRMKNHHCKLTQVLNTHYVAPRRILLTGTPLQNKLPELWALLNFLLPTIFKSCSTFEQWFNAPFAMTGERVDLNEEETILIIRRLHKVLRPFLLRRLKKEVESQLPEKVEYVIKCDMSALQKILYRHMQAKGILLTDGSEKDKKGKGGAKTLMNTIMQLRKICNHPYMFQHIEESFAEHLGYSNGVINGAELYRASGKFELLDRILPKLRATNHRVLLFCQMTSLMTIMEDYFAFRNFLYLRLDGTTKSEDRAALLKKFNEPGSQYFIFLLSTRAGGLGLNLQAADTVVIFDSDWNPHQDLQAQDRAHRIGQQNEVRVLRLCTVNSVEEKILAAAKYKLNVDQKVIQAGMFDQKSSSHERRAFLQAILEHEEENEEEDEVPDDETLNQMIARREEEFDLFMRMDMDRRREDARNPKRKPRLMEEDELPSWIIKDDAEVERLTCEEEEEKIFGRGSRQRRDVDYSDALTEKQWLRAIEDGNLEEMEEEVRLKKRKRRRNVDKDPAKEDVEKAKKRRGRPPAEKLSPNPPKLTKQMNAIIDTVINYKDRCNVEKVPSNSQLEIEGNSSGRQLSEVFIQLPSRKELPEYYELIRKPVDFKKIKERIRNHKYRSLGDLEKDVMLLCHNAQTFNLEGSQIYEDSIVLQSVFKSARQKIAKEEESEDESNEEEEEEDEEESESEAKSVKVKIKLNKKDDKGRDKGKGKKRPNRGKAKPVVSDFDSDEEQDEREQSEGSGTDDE

Consider `Cc1ncsc1-c1ccc([C@H](C)NC(=O)[C@@H]2C[C@@H](O)CN2C(=O)[C@@H](c2cc(OCCC#Cc3ccc(OC4CC(Oc5cc(N6C7CC[C@@H]6CN(c6cc(-c8ccccc8O)nnc6N)C7)ccn5)C4)cn3)no2)C(C)C)cc1` (stereo partly drawn) [compound 227, (2S,4R)-1-((2R)-2-(3-((4-(5-((1r,3r)-3-((4-(3-(3-amino-6-(2-hydroxyphenyl)pyridazin-4-yl)-3,8-diazabicyclo[3.2.1]octan-8-yl)pyridin-2-yl)oxy)cyclobutoxy)pyridin-2-yl)but-3-yn-1-yl)oxy)isoxazol-5-yl)-3-methylbutanoyl)-4-hydroxy-N-((S)-1-(4-(4-methylthiazol-5-yl)phenyl)ethyl)pyrrolidine-2-carboxamide], for which the 50% degradation concentration (DC50) was under 2.5 nM. Besides, under setting [1], the “Dmax (%) (% degraded)” value is “A (A > 75)”.

In the case of `Cc1ncsc1-c1ccc(C2(NC(=O)[C@@H]3C[C@@H](O)CN3C(=O)[C@H](c3cc(OCCN4CCN(CCOc5cc(N6C7CCC6CN(c6cc(-c8ccccc8O)nnc6N)C7)ccn5)CC4)no3)C(C)C)CN(C)C2)cc1` [compound 228, (2S,4R)-1-((2S)-2-(3-(2-(4-(2-((4-(3-(3-amino-6-(2-hydroxyphenyl)pyridazin-4-yl)-3,8-diazabicyclo[3.2.1]octan-8-yl)pyridin-2-yl)oxy)ethyl)piperazin-1-yl)ethoxy)isoxazol-5-yl)-3-methylbutanoyl)-4-hydroxy-N-(1-methyl-3-(4-(4-methylthiazol-5-yl)phenyl)azetidin-3-yl)pyrrolidine-2-carboxamide], the half-maximal degradation concentration (DC50) is over 30 nM. Still for that read-out and setting: in the case of `Cc1ncoc1-c1ccc([C@H](C)NC(=O)[C@@H]2C[C@@H](O)CN2C(=O)[C@H](c2cc(OCCN3CCC(O[C@H]4C[C@H](Oc5cc(N6C7CCC6CN(c6cc(-c8ccccc8O)nnc6N)C7)ccn5)C4)CC3)no2)C(C)C)cn1` [compound 229, (2S,4R)-1-((2S)-2-(3-(2-(4-((1r,3S)-3-((4-(3-(3-amino-6-(2-hydroxyphenyl)pyridazin-4-yl)-3,8-diazabicyclo[3.2.1]octan-8-yl)pyridin-2-yl)oxy)cyclobutoxy)piperidin-1-yl)ethoxy)isoxazol-5-yl)-3-methylbutanoyl)-4-hydroxy-N-((S)-1-(6-(4-methyloxazol-5-yl)pyridin-3-yl)ethyl)pyrrolidine-2-carboxamide] it was over 30 nM. As to `Cc1ncoc1-c1ccc([C@H](C)NC(=O)[C@@H]2C[C@@H](O)CN2C(=O)[C@@H](c2cc(OCCN3CCC(O[C@H]4C[C@H](Oc5cc(N6C7CCC6CN(c6cc(-c8ccccc8O)nnc6N)C7)ccn5)C4)CC3)no2)C(C)C)cn1` [compound 230, (2S,4R)-1-((2R)-2-(3-(2-(4-((1r,3R)-3-((4-(3-(3-amino-6-(2-hydroxyphenyl)pyridazin-4-yl)-3,8-diazabicyclo[3.2.1]octan-8-yl)pyridin-2-yl)oxy)cyclobutoxy)piperidin-1-yl)ethoxy)isoxazol-5-yl)-3-methylbutanoyl)-4-hydroxy-N-((S)-1-(6-(4-methyloxazol-5-yl)pyridin-3-yl)ethyl)pyrrolidine-2-carboxamide], the half-maximal degradation concentration (DC50) was under 2.5 nM. In addition, the Dmax under setting [1] is over 75%. As for `Cc1ncsc1-c1ccc([C@H](C)NC(=O)[C@@H]2C[C@@H](O)CN2C(=O)[C@H](c2cc(OCC#Cc3ncc(O[C@H]4C[C@H](Oc5cc(N6C7CCC6CN(c6cc(-c8ccccc8O)nnc6N)C7)ccn5)C4)cn3)no2)C(C)C)cc1` [compound 231, (2S,4R)-1-((2S)-2-(3-((3-(5-((1r,3S)-3-((4-(3-(3-amino-6-(2-hydroxyphenyl)pyridazin-4-yl)-3,8-diazabicyclo[3.2.1]octan-8-yl)pyridin-2-yl)oxy)cyclobutoxy)pyrimidin-2-yl)prop-2-yn-1-yl)oxy)isoxazol-5-yl)-3-methylbutanoyl)-4-hydroxy-N-((S)-1-(4-(4-methylthiazol-5-yl)phenyl)ethyl)pyrrolidine-2-carboxamide], the half-maximal degradation concentration (DC50) is under 2.5 nM. Further, the maximal degradation (Dmax) under setting [1] is over 75%. Taken in the same sequence, the figures for `Cc1ncsc1-c1ccc([C@H](C)NC(=O)[C@@H]2C[C@@H](O)CN2C(=O)[C@@H](c2cc(OCC#Cc3ncc(O[C@H]4C[C@H](Oc5cc(N6C7CCC6CN(c6cc(-c8ccccc8O)nnc6N)C7)ccn5)C4)cn3)no2)C(C)C)cc1` [compound 232, (2S,4R)-1-((2R)-2-(3-((3-(5-((1r,3R)-3-((4-(3-(3-amino-6-(2-hydroxyphenyl)pyridazin-4-yl)-3,8-diazabicyclo[3.2.1]octan-8-yl)pyridin-2-yl)oxy)cyclobutoxy)pyrimidin-2-yl)prop-2-yn-1-yl)oxy)isoxazol-5-yl)-3-methylbutanoyl)-4-hydroxy-N-((S)-1-(4-(4-methylthiazol-5-yl)phenyl)ethyl)pyrrolidine-2-carboxamide] were under 2.5 nM and over 75%. Taken in the same sequence, the figures for `Cc1nccn1-c1ccc([C@H](C)NC(=O)[C@@H]2C[C@@H](O)CN2C(=O)[C@H](c2cc(OCC#Cc3ccc(O[C@H]4C[C@H](Oc5cc(N6C7CCC6CN(c6cc(-c8ccccc8O)nnc6N)C7)ccn5)C4)cn3)no2)C(C)C)cc1` [compound 233, (2S,4R)-1-((2S)-2-(3-((3-(5-((1r,3S)-3-((4-(3-(3-amino-6-(2-hydroxyphenyl)pyridazin-4-yl)-3,8-diazabicyclo[3.2.1]octan-8-yl)pyridin-2-yl)oxy)cyclobutoxy)pyridin-2-yl)prop-2-yn-1-yl)oxy)isoxazol-5-yl)-3-methylbutanoyl)-4-hydroxy-N-((S)-1-(4-(2-methyl-1H-imidazol-1-yl)phenyl)ethyl)pyrrolidine-2-carboxamide] were 10 to 30 nM and over 75%. Consider `Cc1nccn1-c1ccc([C@H](C)NC(=O)[C@@H]2C[C@@H](O)CN2C(=O)[C@@H](c2cc(OCC#Cc3ccc(O[C@H]4C[C@H](Oc5cc(N6C7CCC6CN(c6cc(-c8ccccc8O)nnc6N)C7)ccn5)C4)cn3)no2)C(C)C)cc1` [compound 234, (2S,4R)-1-((2R)-2-(3-((3-(5-((1r,3R)-3-((4-(3-(3-amino-6-(2-hydroxyphenyl)pyridazin-4-yl)-3,8-diazabicyclo[3.2.1]octan-8-yl)pyridin-2-yl)oxy)cyclobutoxy)pyridin-2-yl)prop-2-yn-1-yl)oxy)isoxazol-5-yl)-3-methylbutanoyl)-4-hydroxy-N-((S)-1-(4-(2-methyl-1H-imidazol-1-yl)phenyl)ethyl)pyrrolidine-2-carboxamide], for which the DC50 was under 2.5 nM. For the same compound, the greatest degradation seen (Dmax) under setting [1] was over 75%.

Turning to `CC(=O)N1CC(NC(=O)[C@@H]2C[C@@H](O)CN2C(=O)[C@H](c2cc(OCCN3CCN(CCOc4cc(N5C6CCC5CN(c5cc(-c7ccccc7O)nnc5N)C6)ccn4)CC3)no2)C(C)C)(c2ccc(-c3scnc3C)cc2)C1` [compound 235, (2S,4R)-N-(1-acetyl-3-(4-(4-methylthiazol-5-yl)phenyl)azetidin-3-yl)-1-((2S)-2-(3-(2-(4-(2-((4-(3-(3-amino-6-(2-hydroxyphenyl)pyridazin-4-yl)-3,8-diazabicyclo[3.2.1]octan-8-yl)pyridin-2-yl)oxy)ethyl)piperazin-1-yl)ethoxy)isoxazol-5-yl)-3-methylbutanoyl)-4-hydroxypyrrolidine-2-carboxamide], the half-maximal degradation concentration (DC50) is over 30 nM.

Regarding `Cc1ncsc1-c1ccc([C@H](C)NC(=O)[C@@H]2C[C@@H](O)CN2C(=O)[C@H](c2cc(OCC#Cc3ccc(O[C@H]4C[C@H](Oc5cc(N6C7CCC6CN(c6cc(-c8ccccc8O)nnc6N)C7)ccn5)C4)cn3)no2)C(C)C)cn1` [compound 236, (2S,4R)-1-((2S)-2-(3-((3-(5-((1r,3S)-3-((4-(3-(3-amino-6-(2-hydroxyphenyl)pyridazin-4-yl)-3,8-diazabicyclo[3.2.1]octan-8-yl)pyridin-2-yl)oxy)cyclobutoxy)pyridin-2-yl)prop-2-yn-1-yl)oxy)isoxazol-5-yl)-3-methylbutanoyl)-4-hydroxy-N-((S)-1-(6-(4-methylthiazol-5-yl)pyridin-3-yl)ethyl)pyrrolidine-2-carboxamide], the half-maximal degradation concentration (DC50) was over 30 nM. For the same compound, the maximal degradation (Dmax) under setting [1] was over 75%. Taken in the same sequence, the figures for `Cc1ncsc1-c1ccc([C@H](C)NC(=O)[C@@H]2C[C@@H](O)CN2C(=O)[C@@H](c2cc(OCC#Cc3ccc(O[C@H]4C[C@H](Oc5cc(N6C7CCC6CN(c6cc(-c8ccccc8O)nnc6N)C7)ccn5)C4)cn3)no2)C(C)C)cn1` [compound 237, (2S,4R)-1-((2R)-2-(3-((3-(5-((1r,3R)-3-((4-(3-(3-amino-6-(2-hydroxyphenyl)pyridazin-4-yl)-3,8-diazabicyclo[3.2.1]octan-8-yl)pyridin-2-yl)oxy)cyclobutoxy)pyridin-2-yl)prop-2-yn-1-yl)oxy)isoxazol-5-yl)-3-methylbutanoyl)-4-hydroxy-N-((S)-1-(6-(4-methylthiazol-5-yl)pyridin-3-yl)ethyl)pyrrolidine-2-carboxamide] were under 2.5 nM and over 75%. On to `Cc1ncsc1-c1ccc([C@H](C)NC(=O)[C@@H]2C[C@@H](O)CN2C(=O)[C@@H](c2cc(OCCN3CCC(O[C@H]4C[C@H](C#CCn5cc(-c6cc(-c7ccccc7O)nnc6N)cn5)C4)CC3)no2)C(C)C)cc1` [compound 238, (2S,4R)-1-((R)-2-(3-(2-(4-((1r,3R)-3-(3-(4-(3-amino-6-(2-hydroxyphenyl)pyridazin-4-yl)-1H-pyrazol-1-yl)prop-1-yn-1-yl)cyclobutoxy)piperidin-1-yl)ethoxy)isoxazol-5-yl)-3-methylbutanoyl)-4-hydroxy-N-((S)-1-(4-(4-methylthiazol-5-yl)phenyl)ethyl)pyrrolidine-2-carboxamide], for which the DC50 was under 2.5 nM. For the same compound, under setting [1], the greatest degradation seen (Dmax) is over 75%.
